Measurements from patent publication US10316017B2, “COT modulators and methods of use thereof” (Gilead Sciences, Inc., priority 2015, dated 2019).

Legend:
[1] = test system: TNFα production in LPS-stimulated human monocytes; assay: Cot Monocyte TNFα Cell Based Assay; conditions: Homo sapiens, Monocyte, TNFα in LPS-stimulated human monocytes; read-out: EC50 TNF
Summary of the method: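 Cells at 5,000/well were pretreated with compound for 1 h at 37 °C (0.5% DMSO final), then stimulated with 50 pg/ml LPS for 4 h at 37 °C. Supernatant TNFα was measured by two-antibody TR-FRET after overnight room-temperature incubation; values are percent of control between unstimulated and stimulated wells.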

[2] = biological target: T1, human Cot catalytic domain (30-397 amino acids) (Homo sapiens, UniProt P41279); assay: High Throughput Cot Biochemical Assay (KinEASE TR-FRET); conditions: Cot KinEASE TR-FRET (HTRF) biochemical assay, 400 μM ATP; read-out: IC50 HTRF
T1 construct: Purified recombinant human Cot catalytic domain (30-397 amino acids) was purchased from Cama Biosciences; purchased Cama Biosciences (so in the source)
Summary of the method: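 Reaction of 5 nM recombinant human Cot catalytic domain (aa 30-397) with 1 μM STK3 peptide (XL665-labeled) and 400 μM ATP in 10 mM MOPS pH 7.0, 10 mM MgOAc, 1 mM DTT, 0.5 mg/mL BSA, 0.1% DMSO. Phosphopeptide detected by TR-FRET with europium anti-phospho antibody.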

T1 sequence (P41279 30-397): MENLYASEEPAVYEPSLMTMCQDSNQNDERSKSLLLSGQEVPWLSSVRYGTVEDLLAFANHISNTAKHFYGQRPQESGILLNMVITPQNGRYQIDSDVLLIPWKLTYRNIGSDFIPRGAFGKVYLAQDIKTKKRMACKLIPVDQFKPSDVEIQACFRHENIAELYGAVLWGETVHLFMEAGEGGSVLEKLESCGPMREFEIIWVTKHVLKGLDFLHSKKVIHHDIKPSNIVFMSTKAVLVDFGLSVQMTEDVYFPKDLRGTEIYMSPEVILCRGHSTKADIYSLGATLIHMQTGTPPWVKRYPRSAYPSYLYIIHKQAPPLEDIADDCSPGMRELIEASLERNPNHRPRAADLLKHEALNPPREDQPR

EC50 [1] [nM] | IC50 [2] [nM] | SMILES
344 | 20 | [2H][C@@](Nc1cc(C#N)c2ncc(C#N)c(NCC(C)(C)C)c2c1)(c1cn(C2(C(F)(F)F)CC2)nn1)c1ccccc1Cl [Example 129, (S)-6-(((2-chlorophenyl) (1-(1-(trifluoromethyl)cyclopropyl)-1H-1,2,3-triazol-4-yl)methyl-d)amino)-4-(neopentylamino) quinoline-3,8-dicarbonitrile]
195 | 23 | [2H][C@](Nc1cc(C#N)c2ncc(C#N)c(NCC(C)(C)C)c2c1)(c1ccc(F)cc1)c1cn(C2(C(F)(F)F)CC2)nn1 [Example 130, (S)-6-(((4-fluorophenyl) (1-(1-(trifluoromethyl)cyclopropyl)-1H-1,2,3-triazol-4-yl)methyl-d)amino)-4-(neopentylamino) quinoline-3,8-dicarbonitrile]
140 | 14 | [2H][C@](Nc1cc(C#N)c2ncc(C#N)c(N[C@H](CC)c3ccccc3)c2c1)(c1ccc(F)cc1)c1cn(C2(C(F)(F)F)CC2)nn1 [Example 132, 6-(((S)-(4-fluorophenyl) (1-(1-(trifluoromethyl)cyclopropyl)-1H-1,2,3-triazol-4-yl)methyl-d)amino)-4-(((R)-1-phenylpropyl)amino)quinoline-3,8-dicarbonitrile]
7500 | 962 | [2H][C@](Nc1cc(Cl)c2ncc(C#N)c(NC3(C4CC4)CC3)c2c1)(c1ccc(F)cc1)c1cn(C2CC2)nn1 [Example 135, (S)-4-([1,1'-bi(cyclopropan)]-1-ylamino)-8-chloro-6-(((1-cyclopropyl-1H-1,2,3-triazol-4-yl)(4-fluorophenyl)methyl-d)amino)quinoline-3-carbonitrile]
1360 | 139 | [2H][C@](Nc1cc(C(=O)N(C)C)c2ncc(C#N)c(NCC(C)(C)C)c2c1)(c1ccc(F)cc1)c1cn(C2CC2)nn1 [Example 138, (S)-3-cyano-6-(((1-cyclopropyl-1H-1,2,3-triazol-4-yl) (4-fluorophenyl)methyl-d)amino)-N,N-dimethyl-4-(neopentylamino) quinoline-8-carboxamide]
> 10000 | 1500 | [2H][C@](Nc1cc(-c2ccncc2)c2ncc(C#N)c(NCC(C)(C)C)c2c1)(c1ccc(F)cc1)c1cn(C2CC2)nn1 [Example 140, (S)-6-(((1-cyclopropyl-1H-1,2,3-triazol-4-yl)(4-fluorophenyl)methyl-d)amino)-4-(neopentylamino)-8-(pyridin-4-yl)quinoline-3-carbonitrile]
72 | 5 | [2H][C@@](Nc1cc(Cl)c2ncc(C#N)c(NC3CCOCC3(C)C)c2c1)(c1cn(C2CC2)nn1)c1ccccc1Cl (stereo partly drawn) [Example 141, 8-chloro-6-(((S)-(2-chlorophenyl)(1-cyclopropyl-1H-1,2,3-triazol-4-yl)methyl-d)amino)-4-((3,3-dimethyltetrahydro-2H-pyran-4-yl)amino) quinoline-3-carbonitrile]
5870 | > 10000 | [2H][C@](Nc1ccc2nc(F)c(C#N)c(NCC(C)(C)C)c2c1)(c1ccc(F)cc1)c1cn(C2CC2)nn1 [Example 151, (S)-6-(((1-cyclopropyl-1H-1,2,3-triazol-4-yl)(4-fluorophenyl)methyl-d)amino)-2-fluoro-4-(neopentylamino) quinoline-3-carbonitrile]
213 | 7 | [2H][C@@](Nc1cc(C#N)c2ncc(C#N)c(NCC(C)(C)C)c2c1)(c1cn(C2CC2)nn1)c1ccccc1Cl [Example 152, (S)-6-(((2-chlorophenyl) (1-cyclopropyl-1H-1,2,3-triazol-4-yl)methyl-d)amino)-4-(neopentylamino) quinoline-3,8-dicarbonitrile]
892 | 196 | [2H][C@](Nc1cc(Cl)c2ncc(C#N)c(NC34CC(C3)C4)c2c1)(c1ccc(F)cc1)c1cn(C2CC2)nn1 [Example 153, (S)-4-(bicyclo[1.1.1]pentan-1-ylamino)-8-chloro-6-(((1-cyclopropyl-1H-1,2,3-triazol-4-yl)(4-fluorophenyl)methyl-d)amino)quinoline-3-carbonitrile]

More lines, now with the values behind:

SMILES | EC50 [1] [nM] | IC50 [2] [nM]
[2H][C@@](Nc1cc(C#N)c2ncc(C#N)c(NC3CCOCC3(C)C)c2c1)(c1cn(C2CC2)nn1)c1ccccc1Cl (stereo partly drawn) [Example 128, 6-(((S)-(2-chlorophenyl) (1-cyclopropyl-1H-1,2,3-triazol-4-yl)methyl-d)amino)-4-((3,3-dimethyltetrahydro-2H-pyran-4-yl)amino)quinoline-3,8-dicarbonitrile] | 54 | 2
[2H][C@](Nc1ccc2ncc(C#N)c(NCC(C)(C)C)c2c1)(c1ccc(F)cc1)c1cn(C2CC2)nn1 [Example 133, 6-(((1-cyclopropyl-1H-1,2,3-triazol-4-yl)(4-fluorophenyl)methyl-d)amino)-4-(neopentylamino) quinoline-3-carbonitrile] | 313 | 21
[2H][C@](Nc1cc(Cl)c2ncc(C#N)c(NCC(C)(C)CC#N)c2c1)(c1ccc(F)cc1)c1cn(C2CC2)nn1 [Example 134, (S)-8-chloro-4-((3-cyano-2,2-dimethylpropyl)amino)-6-(((1-cyclopropyl-1H-1,2,3-triazol-4-yl)(4-fluorophenyl)methyl-d)amino)quinoline-3-carbonitrile] | 142 | 6
[2H][C@@](Nc1cc(Cl)c2ncc(C#N)c(N[C@H](CCC#N)c3ccccc3)c2c1)(c1cn(C2CC2)nn1)c1cccc(C#N)c1C [Example 136, 8-chloro-4-(((R)-3-cyano-1-phenylpropyl)amino)-6-(((S)-(3-cyano-2-methylphenyl)(1-cyclopropyl-1H-1,2,3-triazol-4-yl)methyl-d)amino) quinoline-3-carbonitrile] | 20 | 1
[2H][C@](Nc1cc(-c2cnn(C)c2)c2ncc(C#N)c(NCC(C)(C)C)c2c1)(c1ccc(F)cc1)c1cn(C2CC2)nn1 [Example 137, (S)-6-(((1-cyclopropyl-1H-1,2,3-triazol-4-yl)(4-fluorophenyl)methyl-d)amino)-8-(1-methyl-1H-pyrazol-4-yl)-4-(neopentylamino) quinoline-3-carbonitrile] | 4370 | 606
[2H][C@](Nc1cc(-c2ccc(F)nc2)c2ncc(C#N)c(NCC(C)(C)C)c2c1)(c1ccc(F)cc1)c1cn(C2CC2)nn1 [Example 139, (S)-6-(((1-cyclopropyl-1H-1,2,3-triazol-4-yl)(4-fluorophenyl)methyl-d)amino)-8-(6-fluoropyridin-3-yl)-4-(neopentylamino) quinoline-3-carbonitrile] | 276 | 33
[2H][C@](Nc1cc(Cl)c2ncc(C#N)c(NC3[C@H]4COC[C@@H]34)c2c1)(c1ccc(F)cc1)c1cn(C2CC2)nn1 (stereo partly drawn) [Example 142, 4-(((1R,5S)-3-oxabicyclo[3.1.0]hexan-6-yl)amino)-8-chloro-6-(((S)-(1-cyclopropyl-1H-1,2,3-triazol-4-yl)(4-fluorophenyl)methyl-d)amino)quinoline-3-carbonitrile] | 77 | 8
[2H][C@](Nc1cc(Cl)c2ncc(C#N)c(NC3CC34CCCCC4)c2c1)(c1ccc(F)cc1)c1cn(C2CC2)nn1 (stereo partly drawn) [Example 143, 8-chloro-6-(((S)-(1-cyclopropyl-1H-1,2,3-triazol-4-yl)(4-fluorophenyl)methyl-d)amino)-4-(spiro[2.5]octan-1-ylamino)quinoline-3-carbonitrile] | 1170 | 99
[2H][C@](Nc1cc(Cl)c2ncc(C#N)c(N[C@@H]3CCOCC3(C)C)c2c1)(c1ccc(F)cc1)c1cn(C2CC2)nn1 [Example 146, 8-chloro-6-(((S)-(1-cyclopropyl-1H-1,2,3-triazol-yl)(4-fluorophenyl)methyl-d)amino)-4-(((R)-3,3-dimethyltetrahydro-2H-pyran-4-yl)amino) quinoline-3-carbonitrile] | 895 | 95
[2H][C@](Nc1cc(Cl)c2ncc(C#N)c(NCCc3nccs3)c2c1)(c1ccc(F)cc1)c1cn(C2CC2)nn1 [Example 147, (S)-8-chloro-6-(((1-cyclopropyl-1H-1,2,3-triazol-4-yl)(4-fluorophenyl)methyl-d)amino)-4-((2-(thiazol-2-yl)ethyl)amino) quinoline-3-carbonitrile] | 3610 | 254
[2H][C@](Nc1cc(Cl)c2ncc(C#N)c(NCCc3ccn(C)n3)c2c1)(c1ccc(F)cc1)c1cn(C2CC2)nn1 [Example 148, (S)-8-chloro-6-(((1-cyclopropyl-1H-1,2,3-triazol-4-yl)(4-fluorophenyl)methyl-d)amino)-4-((2-(1-methyl-1H-pyrazol-3-yl)ethyl)amino) quinoline-3-carbonitrile] | 8670 | 2140
[2H][C@](Nc1cc(Cl)c2ncc(C#N)c(NCCc3ccnn3C)c2c1)(c1ccc(F)cc1)c1cn(C2CC2)nn1 [Example 149, (S)-8-chloro-6-(((1-cyclopropyl-1H-1,2,3-triazol-4-yl)(4-fluorophenyl)methyl-d)amino)-4-((2-(1-methyl-1H-pyrazol-5-yl)ethyl)amino) quinoline-3-carbonitrile] | 2110 | 162
[2H][C@](Nc1cc(Cl)c2ncc(C#N)c(N[C@@H]3C[C@H]3C(F)(F)F)c2c1)(c1ccc(F)cc1)c1cn(C2CC2)nn1 [Example 154, 8-chloro-6-(((S)-(1-cyclopropyl-1H-1,2,3-triazol-4-yl)(4-fluorophenyl)methyl-d)amino)-4-(((1R,2R)-2-(trifluoromethyl)cyclopropyl)amino)quinoline-3-carbonitrile] | 576 | 39
